The test system of this assay is Wistar rats after chronic unpredictable mild stress. Kind of assay: CUMS model: Porsolt forced swimming test. In kind it is in vivo. The following applies: FQSE 0.05 mg/kg i.n.; Diazepam 0.5 mg/kg i.p.; 18 injections. On the procedure:
During stress, the animals were placed in individual cells and exposed to stressful conditions each day for 26 days. Two stressors were used daily, applied in the following order: • Day 1. 10 am-6 pm, rats were placed in a cold room for an hour. From 6 PM to 10 am the lights were turned on and off every 2 hours. • Day 2. 10 am-6 pm, cage tilted to 45°. From 6 PM to 10 am water deprivation. • Day 3. 10 am-6 pm, stroboscopic light. From 6 PM to 10 am the light was left on overnight. • Day 4. 10 am-6 pm, wet bedding. From 6 PM to 10 am the animals were put in a small mouse cage. • Day 5. 10 am-6 pm, no bedding. From 6 PM to 10 am the lights were turned on and off every 2 hours. • Day 6. 10 am-6 pm, a new rat was placed in the cage (6-month-old). From 6 PM to 10 am the light was left on overnight. • Day 7. 10 am-6 pm, white noise. From 6 PM to 10 am a stroboscopic light was turned on at night. • Day 8-26. Repetition of previously used stressors in the specified sequence. […]
The forced swim test is a rodent behavioral test used for the evaluation of antidepressant drugs, antidepressant efficacy of new compounds, and experimental manipulations that are aimed at rendering or preventing depressive-like states. […] In the last 6 minutes, the duration of active (vigorous movement of all limbs) and passive (weak strokes of the hind limbs) swimming and immobility duration were recorded. […]

We go through 1 compound from patent US12178838B2, “Synthetic neuromodulatory peptides” (Lactocore, Inc., priority 2019, dated 2024).

Regarding `CN1C(=O)CN=C(c2ccccc2)c2cc(Cl)ccc21` [Diazepam], the immobilization time entry is on record as “did not differ”.
